Legend:
[1] = test system: wild type S. typhimurium; assay: Growth on AI-2 as sole carbon source; assay type: cell-based
Description: One possibility is that AI-2 is initially used as a signal, then, at subsequent times, when AI-2 is no longer required for signal transduction, S. typhimurium internalizes it for use as a carbon source. To test this idea, we attempted to grow wild type S. typhimurium on in vitro prepared AI-2 as a sole carbon source. […] Therefore, growth on AI-2 cannot account for its disappearance from the medium. A second possibility is that the removal of AI-2 activity is required for its modification to another signal. For example, the LsrE epimerase, or another enzyme, could convert AI-2 into an internal signal. Finally, AI-2 could be internalized for degradation. In this case, elimination of AI-2 could serve to terminate the signalling process. Signal production coupled to subsequent elimination could allow S. typhimurium the flexibility to transition between several modes of existence. For example, as AI-2 is associated with the presence of many species of bacteria, high levels of AI-2 could be indicative of the transition from outside a host to the intestinal environment, whereas low levels of AI-2 could signal S. typhimurium that it has exited the intestinal tract for the next location in the infection (i.e., the macrophage) where S. typhimurium is not in association with high numbers of commensal bacteria. […]

[2] = test system: rck::MudJ fusion (SdiA); assay: SdiA regulated rck::MudJ fusion assay; assay type: cell-based; conditions: AI-2 from E. coli or S. typhimurium; sdiA+ and sdiA− backgrounds
Protocol: For ftsQ regulation in E. coli, the plasmids pMS207 and pMS209 were transformed into E. coli strain MC4100 (Silhavy et al., 1984, supra), and the transformants were grown overnight in LB containing 100 mg/L ampicillin at 30° C. with aeration. For rck regulation, S. typhimurium strains BA1105 (rck::MudJ) and BA1305 (rck::MudJ sdiA) were grown overnight in LB containing 100 mg/L kanamycin at 30° C. with aeration. The overnight cultures were diluted 20-fold into fresh medium and grown for an additional 4.5 h. At this time, each culture was divided into five identical aliquots and 10% (v/v) of one of the following was added to each aliquot: LB, 0.4 M NaCl, […] osmotic shock fluids from S. typhimurium LT2, E. coli O157 or E. coli strain DH5 (negative control). The osmotic shock fluids were prepared as described above, following pregrowth of the S. typhimurium LT2 and E. coli in LB containing 0.5% glucose for 6h. The cell suspensions were incubated at 30° C. for 2 h, after which standard -galactosidase reactions were performed on the samples (Miller, A Short Course in Bacterial Genetics, Cold Spring Harbor Laboratory Press, 1992).

[3] = test system: V. harveyi reporter strain BB170 (Sensor 1−, Sensor 2+); assay type: cell-based, Vibrio harveyi
Protocol: Cell-free culture fluids from E. coli, S. typhimurium and V. harveyi strains were tested for the presence of signaling substances that could induce luminescence in the V. harveyi reporter strain BB170 or BB886. […] Positive control wells contained 10 μl of cell-free culture fluid from strain V. harveyi BB152 (Autoinducer-1^−, Autoinducer-2^+) or V. harveyi BB120 (Autoinducer-1^+, Autoinducer-2^+). Negative control wells contained 10 μl of sterile growth medium. The microtiter dishes were shaken in a rotary shaker at 175 rpm at 30° C.
The cell density was measured by diluting the same aliquots of cells used for measuring luminescence, spreading the dilutions onto solid LM medium, incubating the plates overnight at 30° C., and counting the resulting colonies the following day. […] Cell-free culture supernatants from V. harveyi or S. typhimurium strains were added to a final concentration of 10% (v/v) at the time of the first measurement. In control experiments, 10% (v/v) of AB medium, LB medium or LB medium containing 0.5% glucose was added instead of cell-free culture fluids.

[4] = test system: lsr operon (lsr-lacZ fusions); assay: β-galactosidase assay of lsr::MudJ (lacZ) fusions; assay type: cell-based, S. typhimurium
Protocol: Various S. typhimurium lsr::MudJ fusion strains were grown to late exponential phase in LB medium supplemented with AI-2 prepared by our in vitro method at an approximate concentration of 70 μM. This is roughly twice the concentration of AT-2 that we estimate to be present in S. typhimurium cell-free supernatants (not shown). As a control, we performed the same experiment with material from in vitro reactions carried out with SAH and Pfs enzyme in the absence of the LuxS enzyme. This reaction produces adenine and SRH. Homocysteine was added to this control mixture following the reaction to compensate for the homocysteine that would be produced by LuxS. Therefore, the only component absent from the control reaction was AI-2.
Cultures of S. typhimurium that had been grown overnight were diluted 1:100 into fresh LB and grown for 4 hours. For strains containing plasmids, cultures were diluted in LB supplemented with Amp. When necessary, AI-2 was synthesized in vitro and added to the growth media at the time of inoculation (Schauder et al., 2001). Cells from 1 ml of these cultures were harvested and resuspended in 1 ml Z buffer. P-galactosidase assays were performed using a microtitre plate assay, as described (Slauch and Silhavy, 1991). β-galactosidase units were calculated as (0.1*mOD420/min)/[OD600 of cells*Volume (ml)]. All assays were performed in triplicate.

[5] = test system: metE-lacZ fusion; assay: metE-lacZ fusion transcription; assay type: cell-based, S. typhimurium
Protocol: The insertion sites of the eight luxS regulated MudJ fusions were determined by arbitrary PCR amplification of the MudJ-chromosome fusion junctions, followed by BLAST database analysis (Caetano-Anolles, 1993; Altschul et al., 1990). One MudJ insertion was located in the metE gene. MetE is involved in the biosynthesis of methionine, that is a precursor of SAM (Weissbach and Brot, 1991). Specifically, MetE catalyzes the final step in methionine biosynthesis in the absence of vitamin B12. Transcription of metE is induced when the substrate homocysteine is available and when the intracellular concentration of methionine is low (Urbanowski and Stauffer, 1989). We reason that metE is not a true target of AI-2 regulation, but instead metE transcription is induced in the wild type luxS strain relative to the luxS null strain because homocysteine is produced during the generation of AI-2 in the LuxS^+ strain.

## CC(=O)C(=O)C(O)CO (centres unmarked) [AI-2, 4,5-dihydroxy-2,3-pentanedione]
[1]
  growth on in vitro prepared AI-2 as a sole carbon source: could not grow on AI-2
[2]
  change in β-galactosidase production of rck::MudJ: No change
[3]; 0.4 M NaCl shock fluid activity incubated 2 h with S. typhimurium cells pre-incubated in 0.1 M NaCl
  signaling activity degraded: greater than 98%
[3]; in vitro prepared AI-2 added to S. typhimurium culture, chilled immediately
  input AI-2 activity (induction of V. harveyi bioluminescence reporter): 1000 fold
[3]; in vitro reaction: dialyzed LuxS− cell extract + SAM + LuxS protein, MW<5000 filtrate
  stimulation in light production in the bioassay: over 500 fold
[4]; strains lacking luxS, 70 μM exogenous AI-2
  expression of the lsr-lacZ fusions: induces the expression of the lsr-lacZ fusions to levels above that when wild type luxS is present
[4]; wild type luxS strains, exogenous AI-2 added
  expression of the lsr-lacZ fusions: additional stimulation of the expression of the lsr-lacZ fusions
[5]
  effect of exogenous AI-2 on transcription of the metE-lacZ fusion: did not affect the transcription of the metE-lacZ fusion

Reference: patent US7183099B2, “Inhibitors of autoinducer transporters” (Princeton University, priority 2001, dated 2007)
